Columns and labels:
DYRK1A = molecular target: T1, DYRK1A (Homo sapiens, UniProt Q13627); experiment: Kinase TR-FRET assay, DYRK1A; type: biochemical
T1 construct: full-length human kinases from Carna Biosciences; purchased Carna Biosciences 04-130

DYRK1B = molecular target: T2, DYRK1B (Homo sapiens, UniProt Q9Y463); experiment: Kinase TR-FRET assay, DYRK1B; type: biochemical
T2 construct: full-length human kinases from Carna Biosciences; purchased Carna Biosciences 04-131

[1] = molecular target: T3, His-TEV-DYRK1A Kinase domain (aa127-485) (Homo sapiens, UniProt Q13627); experiment: Kinase ADP assay (ADP Hunter Plus); type: biochemical
T3 construct: His-TEV-DYRK1A Kinase domain (aa127-485); His (N); TEV cleavage site (N)

phospho-Ser520-DYRK1A = molecular target: T4, phospho-Ser520-DYRK1A (Homo sapiens, UniProt Q13627); experiment: Cellular DYRK1A autophosphorylation assay in U2-OS cells; type: cell-based; details: 5 hours exposure, read-out: IC50 (μM) P-Ser520-Dyrk1A-Cell assay
T4 construct: full-length, wild-type human DYRK1A (NM_001396) with an HA tag; expressed in transfected cells; host or cells: human U2-OS osteosarcoma cells, pcDNA3.1 plasmid

CLK1 = molecular target: T5, CLK1 (Homo sapiens, UniProt P49759); experiment: Kinase TR-FRET assay, CLK1; type: biochemical
T5 construct: full-length human kinases from Carna Biosciences; purchased Carna Biosciences 04-126
T5 sequence (P49759 1-526 isoform P49759-3): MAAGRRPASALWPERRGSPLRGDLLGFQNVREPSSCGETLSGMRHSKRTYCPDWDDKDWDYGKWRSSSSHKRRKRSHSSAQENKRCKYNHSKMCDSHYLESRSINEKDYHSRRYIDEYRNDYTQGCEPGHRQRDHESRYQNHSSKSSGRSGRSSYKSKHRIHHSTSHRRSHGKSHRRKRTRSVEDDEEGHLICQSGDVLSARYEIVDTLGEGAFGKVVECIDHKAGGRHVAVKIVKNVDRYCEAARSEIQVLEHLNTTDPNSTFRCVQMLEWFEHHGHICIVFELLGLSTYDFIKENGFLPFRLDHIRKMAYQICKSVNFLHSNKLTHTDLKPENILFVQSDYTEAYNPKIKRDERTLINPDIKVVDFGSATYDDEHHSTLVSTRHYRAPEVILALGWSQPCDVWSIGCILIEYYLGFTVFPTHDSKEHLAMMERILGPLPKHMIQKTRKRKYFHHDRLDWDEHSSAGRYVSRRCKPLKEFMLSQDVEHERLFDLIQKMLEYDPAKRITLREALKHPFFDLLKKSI

T2 sequence (Q9Y463 whole entry): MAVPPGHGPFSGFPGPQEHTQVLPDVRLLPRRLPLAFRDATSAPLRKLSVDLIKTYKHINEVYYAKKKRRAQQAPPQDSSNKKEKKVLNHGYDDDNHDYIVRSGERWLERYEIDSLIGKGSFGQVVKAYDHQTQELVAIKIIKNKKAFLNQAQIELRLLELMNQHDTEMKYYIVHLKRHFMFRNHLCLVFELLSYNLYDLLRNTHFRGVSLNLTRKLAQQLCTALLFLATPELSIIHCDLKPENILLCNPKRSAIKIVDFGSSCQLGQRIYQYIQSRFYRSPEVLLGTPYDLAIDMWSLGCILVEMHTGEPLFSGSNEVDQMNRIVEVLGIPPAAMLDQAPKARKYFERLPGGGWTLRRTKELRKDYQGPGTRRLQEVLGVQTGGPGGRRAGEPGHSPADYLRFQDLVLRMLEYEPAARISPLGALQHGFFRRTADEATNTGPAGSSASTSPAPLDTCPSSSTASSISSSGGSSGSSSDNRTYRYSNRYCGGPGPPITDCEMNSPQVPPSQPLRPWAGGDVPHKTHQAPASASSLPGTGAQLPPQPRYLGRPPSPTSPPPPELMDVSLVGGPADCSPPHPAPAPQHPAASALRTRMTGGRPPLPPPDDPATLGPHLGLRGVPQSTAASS

| SMILES | IC50 (DYRK1A) | IC50 (DYRK1B) | IC50 [1] | IC50 (phospho-Ser520-DYRK1A) | IC50 (CLK1) |
| --- | --- | --- | --- | --- | --- |
| COc1cccc(C(F)(F)F)c1CNc1nc(C)nc2[nH]cc(-c3ccnc(N)c3)c12 [Example 80, 5-(2-aminopyridin-4-yl)-N-[2-methoxy-6-(trifluoromethyl)benzyl]-2-methyl-7H-pyrrolo[2,3-d]pyrimidin-4-amine] | 0.0059 µM | 0.0106 µM | 0.004 µM | 0.0156 µM | – |
| Cc1nc(NCc2cccc(F)c2F)c2c(-c3ccnc(N)c3)c[nH]c2n1 [Example 74, 5-(2-aminopyridin-4-yl)-N-(2,3-difluorobenzyl)-2-methyl-7H-pyrrolo[2,3-d]pyrimidin-4-amine] | 0.0012 µM | – | 0.014 µM | 0.111 µM | 0.0184 µM |
| Cc1nc(NCc2cccc(Cl)c2C)c2c(-c3ccnc(N)c3)c[nH]c2n1 [Example 94, 5-(2-aminopyridin-4-yl)-N-(3-chloro-2-methylbenzyl)-2-methyl-7H-pyrrolo[2,3-d]pyrimidin-4-amine] | 0.0077 µM | 0.0112 µM | 0.019 µM | 0.155 µM | 0.0378 µM |
| Cc1nc(NCc2ncccc2F)c2c(-c3ccnc(N)c3)c[nH]c2n1 [Example 71, 5-(2-aminopyridin-4-yl)-N-[(3-fluoropyridin-2-yl)methyl]-2-methyl-7H-pyrrolo[2,3-d]pyrimidin-4-amine] | – | 0.0074 µM | – | – | 0.0237 µM |
| Cc1nc(N2CCC3CCCCC3C2)c2c(-c3ccnc(N)c3)c[nH]c2n1 (stereo not shown) [Example 104, 4-[2-methyl-4-(octahydroisoquinolin-2(1H)-yl)-7H-pyrrolo[2,3-d]pyrimidin-5-yl]pyridin-2-amine] | 0.0081 µM | 0.0167 µM | 0.015 µM | 0.105 µM | 0.0225 µM |
| Cc1nc(OCc2ccc(C#N)cc2)c2c(-c3ccnc(N)c3)c[nH]c2n1 [Example 25, 4-({[5-(2-aminopyridin-4-yl)-2-methyl-7H-pyrrolo[2,3-d]pyrimidin-4-yl]oxy}methyl)benzonitrile] | 0.0031 µM | 0.0079 µM | 0.012 µM | 0.036 µM | 0.0177 µM |
| Cc1nc(N2CCc3ccccc3C2)c2c(-c3cc(N)nc(N)c3)c[nH]c2n1 [Example 114, 4-[4-(3,4-dihydroisoquinolin-2(1H)-yl)-2-methyl-7H-pyrrolo[2,3-d]pyrimidin-5-yl]pyridine-2,6-diamine] | – | – | 0.009 µM | 0.006 µM | 0.0162 µM |
| Cc1nc(NCc2cccc(Cl)c2Cl)c2c(-c3ccnc(N)c3)c[nH]c2n1 [Example 81, 5-(2-aminopyridin-4-yl)-N-(2,3-dichlorbenzyl)-2-methyl-7H-pyrrolo[2,3-d]pyrimidin-4-amine] | 0.0085 µM | 0.0141 µM | 0.014 µM | 0.166 µM | – |
| Cc1nc(NCc2ccccc2C(F)(F)F)c2c(-c3ccnc(N)c3)c[nH]c2n1 [Example 64, 5-(2-aminopyridin-4-yl)-2-methyl-N-[2-(trifluoromethyl)benzyl]-7H-pyrrolo[2,3-d]pyrimidin-4-amine] | 0.0059 µM | 0.0093 µM | 0.015 µM | 0.234 µM | – |
| Cc1nc(NC2Cc3ccccc3C2)c2c(-c3ccnc(N)c3)c[nH]c2n1 [Example 99, 5-(2-aminopyridin-4-yl)-N-(2,3-dihydro-1H-inden-2-yl)-2-methyl-7H-pyrrolo[2,3-d]pyrimidin-4-amine] | 0.0086 µM | 0.0293 µM | 0.029 µM | 0.192 µM | 0.0549 µM |
| Cc1nc(N[C@@H]2CCc3ccccc32)c2c(-c3ccnc(N)c3)c[nH]c2n1 [Example 76, 5-(2-aminopyridin-4-yl)-N-[(1R)-2,3-dihydro-1H-inden-1-yl]-2-methyl-7H-pyrrolo[2,3-d]pyrimidin-4-amine] | 0.0063 µM | 0.0005 µM | 0.01 µM | 0.0672 µM | – |
| COc1cccnc1CNc1nc(C)nc2[nH]cc(-c3ccnc(N)c3)c12 [Example 98, 5-(2-aminopyridin-4-yl)-N-[(3-methoxypyridin-2-yl)methyl]-2-methyl-7H-pyrrolo[2,3-d]pyrimidin-4-amine] | – | – | 0.022 µM | 0.192 µM | 0.0241 µM |
| CCOc1ccccc1CNc1nc(C)nc2[nH]cc(-c3ccnc(N)c3)c12 [Example 79, 5-(2-aminopyridin-4-yl)-N-(2-ethoxybenzyl)-2-methyl-7H-pyrrolo[2,3-d]pyrimidin-4-amine] | 0.0021 µM | 0.008 µM | 0.008 µM | 0.105 µM | – |
| Cc1nc(OCc2ccc(C(C)C)cc2)c2c(-c3ccnc(N)c3)c[nH]c2n1 [Example 27, 4-{2-methyl-4-{(4-{propan-2-yl)benzyl]oxy}-7H-pyrrolo[2,3-d]pyrimidin-5-yl)pyridin-2-amine] | 0.0444 µM | 0.0522 µM | 0.04 µM | – | – |
| Cc1nc(OCc2ccccc2)c2c(-c3ccncc3)c[nH]c2n1 [Example 11, 4-(benzyloxy)-2-methyl-5-(pyridin-4-yl)-7H-pyrrolo[2,3-d]pyrimidine] | 0.0173 µM | 0.0132 µM | 0.012 µM | – | – |
| COc1ccccc1[C@H](C)Nc1nc(C)nc2[nH]cc(-c3ccnc(N)c3)c12 [Example 106, 5-(2-aminopyridin-4-yl)-N-[(1S)-1-(2-methoxyphenyl)ethyl]-2-methyl-7H-pyrrolo[2,3-d]pyrimidin-4-amine] | – | – | 0.018 µM | 0.177 µM | 0.0171 µM |
| Cc1cc(-c2c[nH]c3nc(C)nc(OCc4ccsc4)c23)ccn1 [Example 5, 2-methyl-5-(2-methylpyridin-4-yl)-4-(thiophen-3-ylmethoxy)-7H-pyrrolo[2,3-d]pyrimidine] | 0.0094 µM | 0.0005 µM | 0.015 µM | – | – |
| Cc1nc(NCc2cc(C)on2)c2c(-c3ccnc(N)c3)c[nH]c2n1 [Example 59, 5-(2-aminopyridin-4-yl)-2-methyl-N-[(5-methyl-1,2-oxazol-3-yl)methyl]-7H-pyrrolo[2,3-d]pyrimidin-4-amine] | 0.0102 µM | 0.0191 µM | 0.042 µM | 0.259 µM | – |
| Cc1nc(N[C@@H]2C[C@H]3CC[C@@H]2C3)c2c(-c3ccnc(N)c3)c[nH]c2n1 [Example 83, 5-(2-aminopyridin-4-yl)-N-[(1R,2R,4S)-bicyclo[2.2.1]hept-2-yl]-2-methyl-7H-pyrrolo[2,3-d]pyrimidin-4-amine] | 0.0006 µM | 0.0404 µM | 0.081 µM | – | – |

Next, values leading:

| IC50 (DYRK1A) | IC50 (DYRK1B) | IC50 [1] | IC50 (phospho-Ser520-DYRK1A) | IC50 (CLK1) | SMILES |
| --- | --- | --- | --- | --- | --- |
| 0.0059 µM | 0.0093 µM | 0.01 µM | 0.0377 µM | 0.0195 µM | COc1ccccc1[C@H](C)Nc1nc(C)nc2[nH]cc(-c3cc(N)nc(N)c3)c12 [Example 117, 4-(4-{[(1S}-1-(2-methoxyphenyl)ethyl]amino}-2-methyl-7H-pyrrolo[2,3-d]pyrimidin-5-yl)pyridine-2,6-diamine] |
| 0.0066 µM | 0.0192 µM | 0.02 µM | 0.232 µM | 0.0828 µM | Cc1nc(NCc2c(F)cncc2F)c2c(-c3ccnc(N)c3)c[nH]c2n1 [Example 119, 5-(2-aminopyridin-4-yl)-N-[(3,5-difluoropyridin-4-yl)methyl]-2-methyl-7H-pyrrolo[2,3-d]pyrimidin-4-amine] |
| 0.0145 µM | 0.0219 µM | 0.021 µM | 0.0807 µM | 0.121 µM | Nc1cc(-c2c[nH]c3nc(C#CC4CC4)cc(NCc4c(F)cccc4F)c23)ccn1 [Example 216, 3-(2-aminopyridin-4-yl)-6-(cyclopropylethynyl)-N-(2,6-difluorobenzyl)-1H-pyrrolo[2,3-b]pyridin-4-amine] |
| – | – | 0.025 µM | 0.118 µM | 0.248 µM | Cc1nc(COc2c(F)cccc2F)c2c(-c3ccnc(N)c3)c[nH]c2n1 [Example 166] |
| – | – | 0.015 µM | 0.0444 µM | 0.042 µM | COc1cccc(-c2nc(C)nc3[nH]cc(-c4ccnc(N)c4)c23)c1 [Example 167] |
| 0.0045 µM | 0.0051 µM | 0.013 µM | 0.0497 µM | 0.0334 µM | Cc1nc(-c2ccc3c(c2)OCCO3)c2c(-c3ccnc(N)c3)c[nH]c2n1 [Example 173] |
| – | 0.0115 µM | – | – | 0.0425 µM | Cc1nc(-c2ccc3c(c2)OCO3)c2c(-c3ccnc(N)c3)c[nH]c2n1 [Example 179] |
| – | 0.0133 µM | – | – | 0.0238 µM | Cc1nc(NCc2c(F)cccc2F)c2c(-c3ccnc(N)n3)c[nH]c2n1 [Example 206, 5-(2-aminopyrimidin-4-yl)-N-(2,6-difluorobenzyl)-2-methyl-7H-pyrrolo[2,3-d]pyrimidin-4-amine] |
| – | – | 0.026 µM | 0.197 µM | 0.104 µM | Cc1nc(-c2ccccc2)c2c(-c3ccnc(N)c3)c[nH]c2n1 [Example 163] |
| – | – | 0.005 µM | 0.0009 µM | 0.0136 µM | COc1cccc(F)c1CNc1nc(C)nc2[nH]cc(-c3cc(N)nc(N)c3)c12 [Example 116, 4-{4-[(2-fluoro-6-methoxybenzyl)amino]-2-methyl-7H-pyrrolo[2,3-d]pyrimidin-5-yl}pyridine-2,6-diamine] |
| – | – | 0.071 µM | – | 0.0615 µM | Cc1nc(NCC(F)(F)c2ccccc2)c2c(-c3ccnc(N)c3)c[nH]c2n1 [Example 123, 5-(2-aminopyridin-4-yl)-N-(2,2-difluoro-2-phenylethyl)-2-methyl-7H-pyrrolo[2,3-d]pyrimidin-4-amine] |

— patent US20180273538A1, “PYRROLO[2,3-d]PYRIMIDINE DERIVATIVES, A PROCESS FOR THEIR PREPARATION AND PHARMACEUTICAL COMPOSITIONS CONTAINING THEM” (LES LABORATOIRES SERVIER, priority 2015, published 2018)
